Source: ChEMBL document CHEMBL1122681, “(Acylaryloxy)acetic acid diuretics. 5. [(2-Alkyl- and 2,2-disubstituted-1,3-dioxo-5-indanyl)oxy]acetic acids” (J Med Chem, 1984)
Blank lines part the entries; values can stand above or below the molecule they belong to.

Assays:
Canis familiaris [1] = organism: Canis familiaris; assay: Volume of urine in dog; format: ADME, organism-based, Canis lupus familiaris; details: in vivo
Pan troglodytes [2] = assay: Compound was evaluated for diuretic activity in chimpanzee measured as increase in volume of urine at 1 mg/kg; format: functional
Pan troglodytes [3] = assay: Compound was evaluated for diuretic activity in chimpanzee measured as increase in volume of urine at 5 mg/kg; format: functional
Pan troglodytes [4] = assay: Compound was evaluated for diuretic activity in chimpanzee measured as clearance of […] and urate after intra venous administration of 1 mg/kg; format: functional, Urine
Pan troglodytes [5] = assay: Compound was evaluated for diuretic activity in chimpanzee measured as clearance of […] and urate after peroral administration of 5 mg/kg; format: functional, Urine; details: route oral
Pan troglodytes [6] = assay: (§1) Compound was evaluated for diuretic activity in chimpanzee measured as increase in the number of microequivalents of Na+ /min at 1 mg/kg; format: functional, Urine
Pan troglodytes [7] = assay: Compound was evaluated for diuretic activity in chimpanzee measured as increase in the number of microequivalents of Na+ /min at 5 mg/kg; format: functional, Urine
Pan troglodytes [8] = assay: (§2) Compound was evaluated for diuretic activity in chimpanzee measured as increase in the number of microequivalents of Cl- electrolyte/min at 1 mg/kg; format: functional, Urine
Pan troglodytes [9] = assay: Compound was evaluated for diuretic activity in chimpanzee measured as increase in the number of microequivalents of Cl- electrolyte/min at 5 mg/kg; format: functional, Urine
Pan troglodytes [10] = assay: Compound was evaluated for diuretic activity in chimpanzee measured as increase in the number of microequivalents of K+ /min at 1 mg/kg; format: functional, Urine
Canis familiaris [11] = assay: Compound was evaluated for diuretic activity, in female mongrel dogs by measuring amount of Cl- in urine after iv administration of 5 mg/kg (control/compound treatment results) Control = 6; format: functional, Canis lupus familiaris
Pan troglodytes [12] = assay: Compound was evaluated for diuretic activity in chimpanzee measured as increase in the number of microequivalents of K+ /min at 5 mg/kg; format: functional, Urine
Canis familiaris [13] = assay: Compound was evaluated for diuretic activity, in female mongrel dogs by measuring volume of urine, after iv administration of 5 mg/kg (control/compound treatment results) Control = 1; format: functional, Canis lupus familiaris
Canis familiaris [14] = assay: Compound was evaluated for diuretic activity, in female mongrel dogs by measuring amount of K+ in urine after iv administration of 5 mg/kg (control/compound treatment results) Control = 5; format: functional, Canis lupus familiaris
Canis familiaris [15] = assay: Compound was evaluated for diuretic activity, in female mongrel dogs by measuring amount of Na+ in urine after iv administration of 5 mg/kg (control/compound treatment results) Control = 37; format: functional, Canis lupus familiaris
Canis familiaris [16] = assay: Compound was evaluated for diuretic activity, administered orally in female mongrel dogs (5 mg/kg) measured as milliequivalents of Cl-; format: functional, Canis lupus familiaris, Urine
Canis familiaris [17] = assay: Compound was evaluated for diuretic activity, administered orally in female mongrel dogs (5 mg/kg) measured as milliequivalents of K; format: functional, Canis lupus familiaris, Urine
Canis familiaris [18] = assay: Compound was evaluated for diuretic activity, administered orally in female mongrel dogs (5 mg/kg) measured as milliequivalents of Na; format: functional, Canis lupus familiaris, Urine
[19] = volume of urine at 3 mg/kg; format: ADME, organism-based; design: dose 3 mg/kg; details: in vivo
[20] = volume of urine at 81 mg/kg; format: ADME, organism-based; design: dose 81 mg/kg; details: in vivo
[21] = volume of urine at 9 mg/kg; format: ADME, organism-based; design: dose 9 mg/kg; details: in vivo
Canis familiaris [22] = assay: Compound was evaluated for diuretic activity, in female mongrel dogs by measuring volume of urine, after iv administration of 5 mg/kg (control/compound treatment results) Control = 2; format: ADME, organism-based, Canis lupus familiaris; design: dose 5 mg/kg, route intravenous; details: dog, in vivo
Pan troglodytes [23] = assay: Compound was evaluated for diuretic activity in chimpanzee measured as clearance of […] and urate after intravenous administration of 1 mg/kg; format: functional, Urine
Pan troglodytes [24] = assay: as §1; format: functional, Urine; remark: listed apart in the source
Canis familiaris [25] = assay: Compound was evaluated for diuretic activity, in female mongrel dogs by measuring amount of K+ in urine after iv administration of 5 mg/kg (control/compound treatment results) Control = 10; format: functional, Canis lupus familiaris
Canis familiaris [26] = assay: Compound was evaluated for diuretic activity, in female mongrel dogs by measuring amount of Cl- in urine after iv administration of 5 mg/kg (control/compound treatment results) Control = 5; format: functional, Canis lupus familiaris
Canis familiaris [27] = assay: Compound was evaluated for diuretic activity, in female mongrel dogs by measuring amount of Na+ in urine after iv administration of 5 mg/kg (control/compound treatment results) Control = 35; format: functional, Canis lupus familiaris
Rattus norvegicus [28] = assay: Compound was evaluated for diuretic activity administered orally in female rats measured as milliequivalents of Na+x 100 / cage at 81 mg/kg; format: functional, Urine; details: route oral
Rattus norvegicus [29] = assay: Compound was evaluated for diuretic activity administered orally in female rats measured as milliequivalents of Na+x 100 / cage at 9 mg/kg; format: functional, Urine; details: route oral
Rattus norvegicus [30] = assay: Compound was evaluated for diuretic activity administered orally in female rats measured as milliequivalents of Cl-+x 100 / cage at 27 mg/kg; format: functional, Urine; details: route oral
Rattus norvegicus [31] = assay: Compound was evaluated for diuretic activity administered orally in female rats measured as milliequivalents of Cl-x 100 / cage at 3 mg/kg; format: functional, Urine; details: route oral
Rattus norvegicus [32] = assay: Compound was evaluated for diuretic activity administered orally in female rats measured as milliequivalents of Cl-x 100 / cage at 81 mg/kg; format: functional, Urine; details: route oral
Rattus norvegicus [33] = assay: Compound was evaluated for diuretic activity administered orally in female rats measured as milliequivalents of Cl-x 100 / cage at 9 mg/kg; format: functional, Urine; details: route oral
Rattus norvegicus [34] = assay: Compound was evaluated for diuretic activity administered orally in female rats measured as milliequivalents of K+x 100 / cage at 27 mg/kg; format: functional, Urine; details: route oral
Rattus norvegicus [35] = assay: Compound was evaluated for diuretic activity administered orally in female rats measured as milliequivalents of K+x 100 / cage at 3 mg/kg; format: functional, Urine; details: route oral
Rattus norvegicus [36] = assay: Compound was evaluated for diuretic activity administered orally in female rats measured as milliequivalents of K+x 100 / cage at 81 mg/kg; format: functional, Urine; details: route oral
Rattus norvegicus [37] = assay: Compound was evaluated for diuretic activity administered orally in female rats measured as milliequivalents of K+x 100 / cage at 9 mg/kg; format: functional, Urine; details: route oral
Rattus norvegicus [38] = assay: Compound was evaluated for diuretic activity administered orally in female rats measured as milliequivalents of Na+x 100 / cage at 27 mg/kg; format: functional, Urine; details: route oral
Rattus norvegicus [39] = assay: Compound was evaluated for diuretic activity administered orally in female rats measured as milliequivalents of Na+x 100 / cage at 3 mg/kg; format: functional, Urine; details: route oral
[40] = volume of urine at 27 mg/kg; format: ADME, organism-based; design: dose 27 mg/kg; details: in vivo
Pan troglodytes [41] = assay: Compound was evaluated for diuretic activity in chimpanzee measured as clearance of […] and urate after intra venous administration of 0. 5 mg/kg.; format: functional, Urine
Pan troglodytes [42] = assay: Compound was evaluated for diuretic activity in chimpanzee measured as increase in volume of urine at 0.5 mg/kg; format: functional
Pan troglodytes [43] = assay: as §2; format: functional, Urine; remark: listed apart in the source
Pan troglodytes [44] = assay: Compound was evaluated for diuretic activity in chimpanzee measured as increase in the number of microequivalents of K+ /min at 0.5 mg/kg; format: functional, Urine
Pan troglodytes [45] = assay: Compound was evaluated for diuretic activity in chimpanzee measured as increase in the number of microequivalents of Na+ /min at 0.5 mg/kg; format: functional, Urine

Urine volume (Canis familiaris [1]): 553 mL
SMILES: CCC1C(=O)c2cc(OCC(=O)O)c(C)c(C)c2C1=O (stereo not drawn)
Increase in volume (Pan troglodytes [2]): 1.6 mL/min | Increase in volume (Pan troglodytes [3]): 1.2 mL/min | Delta C urate / delta C insulin (Pan troglodytes [4]): 0.101 | Delta C urate / delta C insulin (Pan troglodytes [5]): 0.061 | Increase (Pan troglodytes [6]): 254 | Increase (Pan troglodytes [7]): 194 | Increase (Pan troglodytes [8]): 314 | Increase (Pan troglodytes [9]): 244 | Increase (Pan troglodytes [10]): 41 | Activity (Canis familiaris [11]): 114 u equiv min-1 | Increase (Pan troglodytes [12]): 30 | Activity (Canis familiaris [13]): 4 mL/min | Activity (Canis familiaris [14]): 24 u equiv min-1 | Activity (Canis familiaris [15]): 196 u equiv min-1 | Activity (Canis familiaris [16]): 8 | Activity (Canis familiaris [17]): 5 | Activity (Canis familiaris [18]): 6

Urine volume [19]: 24 mL | Urine volume [20]: 25 mL | Urine volume [21]: 27 mL | Urine volume (Canis familiaris [22]): 2 mL/min | Urine volume [40]: 27 mL
SMILES: Cc1c(OCC(=O)O)cc2c(c1Cl)C(=O)C(C)(C1CCCC1)C2=O (stereo not drawn)
Increase in volume (Pan troglodytes [2]): 0.6 mL/min | Increase in volume (Pan troglodytes [3]): 0 mL/min | Delta C urate / delta C insulin (Pan troglodytes [23]): 0.204 | Delta C urate / delta C insulin (Pan troglodytes [5]): 0.149 | Increase (Pan troglodytes [24]): 82 | Increase (Pan troglodytes [7]): 388 | Increase (Pan troglodytes [8]): 129 | Increase (Pan troglodytes [9]): 527 | Increase (Pan troglodytes [10]): 51 | Activity (Canis familiaris [25]): 41 u equiv min-1 | Activity (Canis familiaris [26]): 48 u equiv min-1 | Increase (Pan troglodytes [12]): 54 | Activity (Canis familiaris [27]): 132 u equiv min-1 | Activity (Rattus norvegicus [28]): 76 | Activity (Rattus norvegicus [29]): 41 | Activity (Rattus norvegicus [30]): 40 | Activity (Rattus norvegicus [31]): 17 | Activity (Rattus norvegicus [32]): 86 | Activity (Rattus norvegicus [33]): 30 | Activity (Rattus norvegicus [34]): 22 | Activity (Rattus norvegicus [35]): 21 | Activity (Rattus norvegicus [36]): 36 | Activity (Rattus norvegicus [37]): 24 | Activity (Rattus norvegicus [38]): 50 | Activity (Rattus norvegicus [39]): 19

SMILES: CC1(c2ccccc2)C(=O)c2cc(OCC(=O)O)c(Cl)c(Cl)c2C1=O (stereo not drawn)
Increase in volume (Pan troglodytes [2]): 0.6 mL/min | Delta C urate / delta C insulin (Pan troglodytes [41]): 0.01 | Delta C urate / delta C insulin (Pan troglodytes [5]): 0.043 | Increase (Pan troglodytes [24]): 2 | Increase in volume (Pan troglodytes [42]): 0.3 mL/min | Increase (Pan troglodytes [8]): 36 | Increase (Pan troglodytes [43]): 30 | Increase (Pan troglodytes [44]): 31 | Increase (Pan troglodytes [10]): 25 | Increase (Pan troglodytes [45]): 29
